Experimental data reported in article PMC6321058, “Crystal Structures and Cytotoxicity of ent-Kaurane-Type Diterpenoids from Two Aspilia Species” (Molecules, 2018).

Key:
[1] = MTT cytotoxicity assay, BEAS-2B; format: cell-based; settings: human, normal cell line BEAS-2B, 0.19–100 μM
Procedure: (§1) Reagent and cells. Adenocarcinomic human alveolar basal epithelial (A549) and human hepatoma (HepG2) cancer cell lines, immortalized normal human liver (LO2), human bronchial epithelial (BEAS-2B), and fibroblast-like CCD19Lu cells were purchased from [NT], Manassas, VA, USA). The cells were cultured in RPMI-1640 medium supplemented with 10% fetal bovine serum and antibiotics: Penicillin (50 U/Ml) and streptomycin (50 μg/mL; Invitrogen, Paisley, Scotland, UK). All cells were incubated at 37 °C in a 5% humidified CO2 incubator). All test compounds were dissolved in DMSO at a final concentration of 50 mM and stored at -20 °C before use. […] Briefly, 5 × 10^3 cells per well were seeded in 96-well plates before drug treatments. […] Cells without drug treatment were used as controls. Subsequently, 10 μL of 5 mg/mL MTT solution was added to each well and incubated at 37 °C for 4 h, followed by the addition of 100 μL solubilization buffer (12 mM HCl in a solution of 10% SDS) and overnight incubation. The absorbance, A570 nm, was then determined in each well on the next day. The percentage cell viability was calculated using the expression: % Viability = Atreated/ Acontrol × 100, and was given as cytotoxicity in Table 3.

[2] = MTT cytotoxicity assay, LO2; format: cell-based; settings: human, normal cell line LO2, MTT, 0.19–100 μM
Procedure: as §1

[3] = MTT cytotoxicity assay, A549; format: cell-based; settings: human, cancer cell line A549, MTT, 0.19–100 μM
Procedure: as §1

[4] = MTT cytotoxicity assay, Hep-G2; format: cell-based; settings: human, cancer cell line Hep-G2, MTT, 0.19–100 μM
Procedure: as §1

[5] = BEAS-2B cells (human bronchial epithelial)
[6] = LO2 cells (immortalized normal human liver)

SMILES	IC50 at 72 h [1, 5] [µM]	IC50 at 72 h [2, 6] [µM]	IC50 at 72 h [3] [µM]	IC50 at 72 h ([4]; HepG2 cells (human hepatoma)) [µM]	IC50 at 72 h [1] [µM]	IC50 at 72 h [2] [µM]	IC50 at 72 h [4] [µM]	melting point [°C]
C=C1C2CCC3C4(C)CCCC(C)(C(=O)OC)C4CCC3(C2)C1OC(=O)C(C)=CC (stereo not drawn) [Compound 17, methyl-15α-angeloyloxy-ent-kaur-16-en-19-oate]	> 100	> 100	> 100	> 100	–	–	–	–
C=C1C2CCC3(O)C4(C)CCCC(C)(C(=O)OC)C4CCC3(C2)C1OC(=O)C(C)=CC (stereo not drawn) [Compound 4, methyl-9β-hydroxy-15α-angeloyloxy-ent-kaur-16-en-19-oate]	> 100	> 100	> 100	> 100	–	–	–	–
C=C1C[C@@]23CC[C@@H]4[C@](C)(C(=O)O)CCC[C@@]4(C)C2=CC[C@@H]1C3 [Compound 6, ent-kaur-9(11),16-dien-19-oic acid]	–	–	> 100	–	> 100	> 100	> 100	–
C=C1CC23CCC4C(C)(C(=O)OC)CCCC4(C)C2CCC1C3 (stereo not drawn) [Compound 10, methyl-ent-kaur-16-en-19-oate]	> 100	> 100	> 100	> 100	–	–	–	–
C=C1CC23CCC4C(C)(C(=O)O)CCCC4(C)C2=CC(=O)C1C3 (stereo not drawn) [Compound 18, 12-oxo-ent-kaur-9(11),16-dien-19-oic acid]	–	–	80.5 ± 1.8	–	38.6 ± 2.5	30 ± 1.7	81.3 ± 0.3	–
C=C1CC23CCC4C(C)(C(=O)O)CCCC4(C)C2CCC1C3 (stereo not drawn) [Compound 11, ent-kaur-16-en-19-oic acid]	> 100	> 100	> 100	> 100	–	–	–	–
CC[C@H](/C=C/[C@@H](C)[C@H]1CC[C@H]2[C@@H]3CC=C4C[C@@H](O)CC[C@]4(C)[C@H]3CC[C@]12C)C(C)C [Compound 14, stigmasta-5,22(E)-dien-3β-ol]	–	–	> 100	–	> 100	> 100	> 100	–
C=C1C2CCC3C4(C)CCCC(C)(C(=O)O)C4CCC3(C2)C1OC(=O)C(C)=CC (stereo not drawn) [Compound 7, 15α-angeloyloxy-ent-kaur-16-en-19-oic acid]	> 100	> 100	> 100	> 100	–	–	–	–
CC=C(C)C(=O)OC1C23CCC4C(C)(C(=O)O)CCCC4(C)C2CCC(C3)C12CO2 (stereo not drawn) [Compound 5, 15α-angeloyloxy-16β,17-epoxy-ent-kauran-19-oic acid]	> 100	> 100	30.7 ± 1.7	> 100	–	–	–	242 to 243
C[C@@H]1C[C@@]23CC[C@@H]4[C@](C)(C(=O)O)CCC[C@@]4(C)C2=CC[C@@H]1C3 [Compound 6b, ent-kaur-9(11)-en-19-oic acid]	> 100	> 100	> 100	> 100	–	–	–	–
C=C1C2CCC3(O)C4(C)CCCC(C)(C(=O)O)C4CCC3(C2)C1OC(=O)C(C)=CC (stereo not drawn) [Compound 3, 9β-hydroxy-15α-angeloyloxy-ent-kaur-16-en-19-oic acid]	89.9 ± 2	57.2 ± 1.2	> 100	24.7 ± 2.8	–	–	–	–
C=C1CC23CCC4C(C)(C(=O)O)CCCC4(C)C2=CC(OC)C1C3 (stereo not drawn) [Compound 1, 12α-methoxy-ent-kaur-9(11),16-dien-19-oic acid]	–	–	> 100	–	> 100	> 100	27.3 ± 1.9	184 to 186
C=C1C[C@@]23CC[C@@H]4C(C)(C)CCC[C@@]4(C)C2=CC(=O)C1C3 [Compound 9, ent-kaur-9(11),16-dien-12-one]	> 100	75.3 ± 2.8	> 100	> 100	–	–	–	–
CC(=O)O[C@H]1C(=O)[C@@]2(C)[C@H]([C@H](OC(=O)c3ccccc3)[C@]3(O)C[C@H](OC(=O)[C@H](O)[C@@H](NC(=O)c4ccccc4)c4ccccc4)C(C)=C1C3(C)C)[C@]1(OC(C)=O)CO[C@@H]1C[C@@H]2O [Paclitaxel, reference compound]	< 0.1	< 0.1	0.0033	0.19	–	–	–	–
C[C@@]12CCC[C@@](C)(C(=O)O)[C@H]1CC[C@@]13C[C@@H](CC[C@H]12)[C@](C)(O)C3 [Compound 2, (16R)-hydroxy-ent-kauran-19-oic acid]	–	–	> 100	–	> 100	> 100	> 100	–
CO[C@@]1(C)C[C@@]23CC[C@@H]4[C@](C)(C(=O)O)CCC[C@@]4(C)C2=CC[C@@H]1C3 [Compound 6a]	> 100	> 100	> 100	> 100	–	–	–	–
